Molecular target: T1, SCD5 (Homo sapiens, UniProt Q86SK9)
T1 construct: host or cells: S. cerevisiae ole1Δ strain (W303 pdr1Δ pdr3Δ background), plasmid pRS316 with TDH3 promoter and CYC1 terminator
T1 sequence (Q86SK9 1-330): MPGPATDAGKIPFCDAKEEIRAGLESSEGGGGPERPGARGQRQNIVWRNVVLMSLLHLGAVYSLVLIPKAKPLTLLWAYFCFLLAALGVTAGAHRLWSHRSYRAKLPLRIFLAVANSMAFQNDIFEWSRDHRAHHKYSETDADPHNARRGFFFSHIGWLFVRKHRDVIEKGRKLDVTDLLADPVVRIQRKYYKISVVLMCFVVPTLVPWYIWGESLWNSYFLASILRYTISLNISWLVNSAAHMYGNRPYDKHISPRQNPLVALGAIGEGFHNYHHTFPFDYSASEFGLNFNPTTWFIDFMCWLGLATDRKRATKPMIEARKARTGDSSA
Assay: Growth inhibition of humanized yeast strain expressing SCD5 as sole desaturase
Format: cell-based
Details: yeast strain expressing human SCD5 as sole desaturase; Table 8
Method: Strain oleΔ (yeast ole1 deletion mutant) was constructed by deleting OLE1 with NAT-MX6 in BY4741, amplifying the deletion cassette from the genomic DNA of the resulting strain with primers flanking the ORF by 1000 bp upstream and downstream, transforming the resulting deletion cassette into W303 pdr1Δ pdr3Δ, and plating transformants on YPD media containing G418 (200 μg/mL) and nourseothricin ([…]) with 0.01% TWEEN®-20 and 0.5 mM oleic and palmitoleic acids.
The coding sequence of yeast OLE1 was also cloned into this plasmid). These clones were then transformed into the ole1Δ strain and plated on CSM-Ura media (CSM lacking uracil) with 2% glucose (w/v) and independent colonies were isolated and amplified.
All compound profiling experiments were performed using the same basic protocol. Different genetic backgrounds (e.g., gene deletions) or conditions (e.g., addition of oleic and palmitoleic acid) were replaced as indicated below.
Yeast were cultured using standard techniques in complete synthetic media (CSM) and yeast nitrogen base supplemented with 2% (w/v) carbon source (glucose, raffinose, or galactose) to regulate the expression of the toxic disease protein. An initial starter culture was inoculated in 3 mL CSM-Glucose media and incubated overnight in a 30° C. shaker incubator (225 rpm). Saturated morning cultures were then diluted 1:20 in fresh CSM-Raffinose media and grown for 6 h to an OD600 (optical density) of ˜0.4-0.8 at 30° C. with shaking.
Compound administration was performed in two separate steps. First, 15 μL of CSM-Galactose (induces expression of toxic protein) was dispensed into clear 384 well assay plates using a MULTIDROP™ Combi reagent dispenser. […] The cultures described above were then diluted to a 2× concentration (0.03 and 0.08 for alpha-synuclein and ApoE, final ODsoo of 0.015 and 0.04) in CSM-Galactose. For wild-type and Ole1/SCD1/SCD5 plasmid-containing strains, the 2× cell density was 0.02. […] For 96-well assays (FIGS. 1A and 1B), compound dilutions in DMSO were generated in 96 well plates and 1 μL was manually pipetted into 96 well clear bottom assay plates.
For experiments using a plasmid-borne copy of Ole1, SCD1, or SCD5 (FIGS. 3B, 6, and 7), media lacking uracil (SX-Ura, where X is glucose, raffinose, or galactose), was used for all steps of the compound profiling protocol to ensure its maintenance throughout the assay.
After yeast delivery, assay plates were incubated under humidified conditions at 30° C. for 24 to 40 h. ApoE4 rescue experiments were stopped at 24 h, aSyn experiments at 40 h, Ole1 at 24 h, and SCD1/SCD5 at 40 h. The growth of yeast was monitored by reading the ODsoo of each well using a microplate reader (Perkin Elmer EnVision™).

| SMILES | IC50 |
| --- | --- |
| CC(C)(C)OC(=O)N1CCC(c2noc(-c3cc(C4CCOC4)c(F)cn3)n2)CC1 (stereo not drawn) [Compound 1284] | 20 nM |
| O=C(C1CCC1)N1CCC(c2noc(-c3cc(C4CCOC4)ccn3)n2)CC1 (stereo not drawn) [Compound 1285] | 900 nM |
| CC(C)(C)OC(=O)N1CCC(c2noc(-c3cc(N4CCC(F)(F)C4)ccn3)n2)CC1 [Compound 1286] | 4290 nM |
| CC(C)(C)OC(=O)N1CCC(c2noc(-c3cc(N4CCC(F)(F)C4)c(F)cn3)n2)CC1 [Compound 1287] | 340 nM |
| CC(C)(C)OC(=O)N1CCC(c2noc(-c3cc(N4CCOCC4)ccn3)n2)CC1 [Compound 1288] | 5550 nM |
| CC(C)(C)OC(=O)N1CCC(c2noc(-c3ccc(C#N)c(N4CCOCC4)c3)n2)CC1 [Compound 1290] | 520 nM |
| CC(C)C(=O)N1CCC(c2noc(-c3ccc(C#N)c(N4CCOCC4)c3)n2)CC1 [Compound 1291] | 650 nM |
| O=C(OC1CCC1)N1CCC(c2noc(-c3ccn(C4COC4)c(=O)c3)n2)CC1 [Compound 1292] | 15100 nM |
| CC(C)(C)OC(=O)N1CCC(c2noc(-c3ccnc(-c4cocn4)c3)n2)CC1 [Compound 1293] | 490 nM |
| Cn1cnc(-c2cc(-c3nc(C4CCN(C(=O)OC(C)(C)C)CC4)no3)ccn2)c1 [Compound 1294] | 190 nM |
| O=C(C1CC1)N1CCC(c2noc(-c3cc(C4CCOC4)c(F)cn3)n2)CC1 (stereo not drawn) [Compound 1296] | 250 nM |
| O=C(C1CCC1)N1CCC(c2noc(-c3cc(C4CCOC4)c(F)cn3)n2)CC1 (stereo not drawn) [Compound 1297] | 160 nM |
| CC1(OC(=O)N2CCC(c3noc(-c4cc(C5CCOC5)c(F)cn4)n3)CC2)CC1 (stereo not drawn) [Compound 1298] | 30 nM |
| CCC(=O)N1CCC(c2noc(-c3cc(N4CCOCC4)ccn3)n2)CC1 [Compound 1300] | 60 nM |
| CC(C)(C)OC(=O)N1CCC(c2noc(-c3cc(F)c(F)c(N4CCOCC4)c3)n2)CC1 [Compound 1301] | 5180 nM |
| CC(C)C(=O)N1CCC(c2noc(-c3ccc(F)c(N4CCOC5(CC5)C4)c3)n2)CC1 [Compound 1302] | 900 nM |
| CC(C)(C)OC(=O)N1CCC(c2noc(-c3ccc(F)c(N4CCOC5(CC5)C4)c3)n2)CC1 [Compound 1303] | 50 nM |
| CC(C)C(=O)N1CCC(c2noc(-c3cc(F)c(F)c(N4CCOCC4)c3)n2)CC1 [Compound 1304] | 11900 nM |
| CC1CN(c2cc(-c3nc(C4CCN(C(=O)C(C)C)CC4)no3)ccc2F)CC(C)O1 (stereo not drawn) [Compound 1305] | 5390 nM |
| CC1(OC(=O)N2CCC(c3noc(-c4ccnc(-c5ccon5)c4)n3)CC2)CC1 [Compound 1306] | 5380 nM |
| O=C(OC1CCC1)N1CCC(c2noc(-c3ccc(=O)n(C4COC4)c3)n2)CC1 [Compound 1309] | 1030 nM |
| CC1(OC(=O)N2CCC(c3noc(-c4ccnc(-c5cocn5)c4)n3)CC2)CC1 [Compound 1310] | 470 nM |
| CCC(=O)N1CCC(c2noc(-c3cc(N4CCC(F)(F)C4)c(F)cn3)n2)CC1 [Compound 1311] | 7740 nM |
| O=C(OC1CCC1)N1CCC(c2noc(-c3cc(C4CCOC4)ncn3)n2)CC1 (stereo not drawn) [Compound 1312] | 20 nM |
